In ChEMBL document CHEMBL1135210, “Succinimide hydroxamic acids as potent inhibitors of histone deacetylase (HDAC)” (Bioorg Med Chem Lett, 2002):

Legend:
Histone deacetylase = assay: Concentration required to inhibit Histone Deacetylase (HDAC) from K562 erythroleukemia cells; type: cell-based, Homo sapiens
HT-1080 = assay: Concentration required for the antiproliferation of Human HT1080 fibrosarcoma cells; type: functional, cell-based
cells = type: functional; conditions: Homo sapiens, MDA435
Description: Concentration required for the antiproliferation of Human MDA-435 breast carcinoma cells

Row | Structure (SMILES) | IC50 (Histone deacetylase) | IC50 (HT-1080) | IC50 (cells)
1 | CC(C)C[C@@H]1CC(=O)N(CC(=O)NCCCCCC(=O)NO)C1=O | 5 µM | – | –
2 | CCC[C@H]1C(=O)N([C@@H](Cc2ccccc2)C(=O)NCCCCCC(=O)NO)C(=O)[C@@H]1CC(C)C | 0.051 µM | 0.4 µM | 0.57 µM
3 | O=C(CCCCCNC(=O)[C@H](Cc1ccccc1)N1CCCC1=O)NO | > 5 µM | – | –
4 | CC(C)C[C@H]1CN[C@H](C(=O)NCCCCCC(=O)NO)Cc2ccc(cc2)OCCCCC[C@H]1C(=O)OC(C)(C)C | 0.0021 µM | – | –
5 | CCC[C@H]1C(=O)N([C@@H](Cc2ccc(OC)cc2)C(=O)NCCCCCC(=O)NO)C(=O)[C@@H]1CC(C)C | 0.038 µM | 0.53 µM | 0.18 µM
6 | CC(C)C[C@H]1C(=O)N2C[C@@H]1CCCCCOc1ccc(cc1)C[C@H]2C(=O)NCCCCCC(=O)NO | 0.038 µM | 0.25 µM | 0.15 µM
7 | CNCC(=O)[C@@H](Cc1ccccc1)NC(=O)CCCCCCC(=O)NO | 1.4 µM | – | –
8 | CC(C)C[C@@H]1CC(=O)N([C@@H](CC2CCCCC2)C(=O)NCCCCCC(=O)NO)C1=O | 0.64 µM | – | –
9 | CC(C)C[C@@H]1CC(=O)N([C@@H](Cc2ccccc2)C(=O)NCCCCCC(=O)NO)C1=O | 0.099 µM | 2.3 µM | 0.67 µM
10 | CC(C)C[C@H]1C(=O)N([C@@H](Cc2ccccc2)C(=O)NCCCCCC(=O)NO)C(=O)C12CCCC2 | 0.066 µM | 1.5 µM | 0.7 µM
11 | O=C(CCCCCNC(=O)[C@H](Cc1ccccc1)N1C(=O)CCC1=O)NO | 0.66 µM | 14 µM | 10 µM
